Measurements: patent US5354778A, “Antitumor compositions and methods of treatment” (priority 1993, dated 1994)
≈ marks a conversion by molar mass, not a printed value.

Columns and labels:
[1] = system: CCRF-CEM cells; assay: in vitro cytotoxicity against CCRF-CEM cells (50% inhibition of growth); assay type: cell-based, human; details: 72 h incubation; for IC50: Homo sapiens, CCRF-CEM
Protocol: The in vitro CCRF-CEM data reported in column 5 of the Table was obtained using CCRF-CEM cells, a human leukemia cell line, (Foley et al., Cancer, 1965, 18, 522) were grown as previously described (Grindey, et al., J. Mol. Pharmacol., 1979, 16, 601) both references incorporated herein by reference. Dose-response curves were generated for various compounds to determine the concentration required for 50% inhibition of growth (IC50). Cluster plates were prepared in duplicate with the compound at various concentrations. Test compounds were dissolved initially in DMSO at a concentration of 4 mg/mL and further diluted with solvent to the desired concentration. Cells in Roswell Park Memorial Institute 1640 media supplemented with 10% dialyzed fetal bovine serum, and 25 mM HEPES buffer were added to the well an a final concentration of 4.8×10^4 cells/well in a total volume of 2.0 mL. After 72 h of incubation (95% air, 5% CO2), cell numbers were determined on a ZBI Coulter counter. Cell number for indicated controls at the end of incubation was usually (4-6)×10^5 cells/well.

[2] = system: 6C3HED lymphosarcoma; assay: in vivo activity against 6C3HED lymphosarcoma (Gardner lymphosarcoma, GLS) transplanted in C3H mice, oral; details: for Toxic/Total (number of mice which died during test period/total number of mice in test group): 6C3HED tumor-bearing C3H mice; for inhibition in vivo at 150 mg/kg / inhibition in vivo at 300 mg/kg: Mus musculus, 6C3HED, po, 192 h, read-out: % Tumor Inhibition; for % Tumor Inhibition: 6C3HED tumor, C3H mice
Protocol: The compounds were tested in C3H mice bearing a 6C3HED lymphosarcoma, also known as the Gardner lymphosarcoma (GLS). The 6C3HED lymphosarcoma was obtained from the Division of Cancer Treatment, National Cancer Institute, Tumor Bank, maintained at E. G. and G. Mason Research (Worcester, Mass.). First passage tumor was stored in liquid nitrogen using standard techniques. The transplanted tumor was reestablished from the Tumor Bank every six months or as needed. The tumor was maintained by serial passage twice weekly in C3H mice.
In the procedure the tumor was removed from passage animals and minced into 1- to 3-mm square fragments using sterile techniques. Tumor pieces were checked for sterility using both Antibiotic Medium 1 and Brain Heart Infusion (Difco, Detroit, Mich.). Recipient mice were shaved and tumor pieces were implanted subcutaneously in the auxiliary region by trocar. Drug therapy on the appropriate schedule was initiated on the day after tumor implant. The compound being tested was mixed with 2.5 weight % of a polyoxyethylated oil known as "Emulphor EL-620" surfactant from GAF Chemicals Corporation (1:40 dilution of Empulphor in saline). All animals were weighed at the beginning and end of administration of the subject compounds. Food and water were provided ad libitum. The drug was administered orally in 0.5 ml of 2.5% Emulphor. Unless otherwise indicated, the compound was administered once per day for eight days. The tumor was measured the day after treatment ended with two dimensional measurements (width and length) of the tumor taken using Vernier calipers. Tumor weights were calculated from these measurements using the following formula:
(tumor weight in mg)=(width in mm)^2 ×(length in mm)/2
At least one control group of an equal number of mice was treated with the same volume of 2.5% Emulphor only. The percent inhibition was calculated by subtracting the ratio of the mean tumor size of the test group relative to the control group from 1 and multiplying the result by 100.
The results of administering some of the present compounds orally (unless otherwise indicated) to mice bearing a 6C3HED tumor are provided in the Table. In the Table, column 1 gives the example number corresponding to the preparation of the particular compound, column 2 provides the dose level, column 3 lists the percent inhibition of tumor growth, and column 4 gives the number of mice which died relative to the total number of animals in the group.

[3] = 150 mg/kg orally daily for eight days
[4] = 300 mg/kg orally daily for eight days

Question: What does the source list for `Cc1cc(S(=O)(=O)NC(=O)Nc2ccc(Br)cc2)cc(C)c1C` [Example 2, N-[[(4-Bromomhenyl)amino]carbonyl]-3,4,5-trimethylbenzenesulfonamide]?
Answer: IC50 [1]: > 20 µg/mL; Toxic/Total (number of mice which died during test period/total number of mice in test group) [2, 3]: 1/10; Toxic/Total (number of mice which died during test period/total number of mice in test group) [2, 4]: 8/10; inhibition in vivo at 150 mg/kg [2]: 99%; inhibition in vivo at 300 mg/kg [2]: 99%

Question: Which IC50 [1] does the source give for `Cc1cc(S(=O)(=O)NC(=O)Nc2ccc(C(F)(F)F)cc2)cc(C)c1C` [Example 3, N-[[(4 -Trifluoromethylphenyl)amino]carbonyl]-3,4,5-trimethylbenzenesulfonamide] here?
Answer: Its IC50 is over 20 µg/mL.

Question: And the “Toxic/Total (number of mice which died during test period/total number of mice in test group)” value (“Toxic/Total” for short) [2, 3]?
Answer: Its value is 0/10.

Question: And the “Toxic/Total” value [2, 4]?
Answer: Its value is 4/10.

Question: And the inhibition in vivo at 150 mg/kg [2]?
Answer: The inhibition in vivo at 150 mg/kg was 100%.

Question: And the inhibition in vivo at 300 mg/kg [2]?
Answer: The inhibition in vivo at 300 mg/kg was 100%.

Question: Which IC50 [1] does the source give for `Cc1cc(S(=O)(=O)NC(=O)Nc2ccc(Cl)cc2)cc(C)c1Cl` [Example 12, N-[[(4-Chlorophenyl)amino]carbonyl]-4-chloro-3,5-dimethylbenzenesulfonamide] here?
Answer: The IC50 was 15 µg/mL (≈ 40.2 µM).

Question: What about the “Toxic/Total” value [2, 3] of the same molecule?
Answer: The value was 0/10.

Question: What about the “Toxic/Total” value [2, 4] of the same molecule?
Answer: Its value is 1/10.

Question: And the inhibition in vivo at 150 mg/kg [2]?
Answer: The inhibition in vivo at 150 mg/kg was 44%.

Question: And the inhibition in vivo at 300 mg/kg [2]?
Answer: Its inhibition in vivo at 300 mg/kg is 84%.

Question: Which results are given for `COc1c(C)cc(S(=O)(=O)NC(=O)Nc2ccc(Cl)cc2)cc1C` [Example 15, N-[[(4-Chlorophenyl)amino]carbonyl]-3,5-dimethyl-4-methoxybenzesulfonamide]?
Answer: IC50 [1]: 16.5 µg/mL (≈ 44.7 µM); Toxic/Total (number of mice which died during test period/total number of mice in test group) [2, 3]: 1/10; Toxic/Total (number of mice which died during test period/total number of mice in test group) [2, 4]: 0/10; inhibition in vivo at 150 mg/kg [2]: 55%; inhibition in vivo at 300 mg/kg [2]: 87%

Question: What does the source list for `Cc1cc(S(=O)(=O)NC(=O)Nc2ccc(Cl)c(Cl)c2)cc(C)c1C` [Example 4, N-[[(3,4-Dichlorophenyl)amino]carbonyl]-3,4,5-trimethylbenzenesulfonamide]?
Answer: IC50 [1]: 13.5 µg/mL (≈ 34.9 µM); Toxic/Total (number of mice which died during test period/total number of mice in test group) [2, 3]: 0/10; Toxic/Total (number of mice which died during test period/total number of mice in test group) [2, 4]: 1/10; inhibition in vivo at 150 mg/kg [2]: 38%; inhibition in vivo at 300 mg/kg [2]: 74%

Question: With `Nc1c(Cl)cc(S(=O)(=O)NC(=O)Nc2ccc(Cl)cc2)cc1Cl` [Example 7, N,[[(4-Chlorophenyl)amino]carbonyl]-4-amino-3,5-dichlorobenzenesulfonamide] as the molecule, how does the “in vitro (CCRF-CEM) IC50” value [1] read?
Answer: The value was over 20 µg/mL.

Question: What about the “% Tumor Inhibition” value [2, 3] of the same molecule?
Answer: Its value is 95%.

Question: What about the “% Tumor Inhibition” value [2, 4] of the same molecule?
Answer: Its value is “Toxic”.

Question: What about the “Toxic/Total” value [2, 3] of the same molecule?
Answer: Its value is 0/10.

Question: And the “Toxic/Total” value [2, 4]?
Answer: Its value is 10/10.

Question: `O=C(Nc1ccc(Cl)cc1)NS(=O)(=O)c1cc(Cl)c(Cl)c(Cl)c1` [Example 6, N-[[(4-Chlorophenyl)amino]carbonyl]-3,4,5-trichlorobenzene sulfonamide] was tested. Which IC50 [1] did it give?
Answer: The IC50 was over 20 µg/mL.

Question: What about the “Toxic/Total” value [2, 3] of the same molecule?
Answer: Its value is 0/10.

Question: And the “Toxic/Total” value [2, 4]?
Answer: Its value is 3/10.

Question: What about the inhibition in vivo at 150 mg/kg [2] of the same molecule?
Answer: Its inhibition in vivo at 150 mg/kg is 99%.

Question: And the inhibition in vivo at 300 mg/kg [2]?
Answer: The inhibition in vivo at 300 mg/kg was 99%.

Question: Which IC50 [1] does the source give for `CN(C)c1c(Cl)cc(S(=O)(=O)NC(=O)Nc2ccc(Cl)cc2)cc1Cl` [Example 14, N-[[(4-Chlorophenyl)amino]carbonyl]-4-(N,N,dimethylamino)-3,5-dichlorobenzene-sulfonamide] here?
Answer: Its IC50 is 17 µg/mL (≈ 40.2 µM).

Question: And the “Toxic/Total” value [2, 3]?
Answer: Its value is 1/10.

Question: What about the “Toxic/Total” value [2, 4] of the same molecule?
Answer: Its value is 0/10.

Question: What about the inhibition in vivo at 150 mg/kg [2] of the same molecule?
Answer: Its inhibition in vivo at 150 mg/kg is 50%.

Question: And the inhibition in vivo at 300 mg/kg [2]?
Answer: Its inhibition in vivo at 300 mg/kg is 93%.

Question: Which results are given for `CNc1c(Br)cc(S(=O)(=O)NC(=O)Nc2ccc(Cl)cc2)cc1Br` [Example 18, N-[[(4-Chlorophenyl)amino]carbonyl]-3,5-dibromo-4-(N-methylamino)benzenesulfonamide]?
Answer: IC50 [1]: 19.3 µg/mL (≈ 38.8 µM); Toxic/Total (number of mice which died during test period/total number of mice in test group) [2, 3]: 1/10; Toxic/Total (number of mice which died during test period/total number of mice in test group) [2, 4]: 0/10; inhibition in vivo at 150 mg/kg [2]: 26%; inhibition in vivo at 300 mg/kg [2]: 47%

Question: How did the IC50 [1] turn out when `COc1cc(S(=O)(=O)NC(=O)Nc2ccc(Cl)cc2)cc(OC)c1OC` [Example 16, N-[[(4-Chlorophenyl)amino]carbonyl]-3,4,5-trimethoxylbenzenesulfonamide] was run?
Answer: Its IC50 is over 20 µg/mL.

Question: And the “Toxic/Total” value [2, 3]?
Answer: The value was 0/10.

Question: What about the “Toxic/Total” value [2, 4] of the same molecule?
Answer: The value was 0/10.

Question: And the inhibition in vivo at 150 mg/kg [2]?
Answer: The inhibition in vivo at 150 mg/kg was 6%.

Question: And the inhibition in vivo at 300 mg/kg [2]?
Answer: The inhibition in vivo at 300 mg/kg was 35%.

Question: How did the IC50 [1] turn out when `Cc1cc(S(=O)(=O)NC(=O)Nc2ccc(Cl)cc2)cc(C)c1C` [Example 1, N-[[(4-Chlorophenyl)amino]carbonyl]-3,4,5-trimethylbenzene sulfonamide] was run?
Answer: Its IC50 is 14.8 µg/mL (≈ 41.9 µM).

Question: And the “Toxic/Total” value [2, 3]?
Answer: Its value is 0/10.

Question: What about the “Toxic/Total” value [2, 4] of the same molecule?
Answer: Its value is 0/10.

Question: What about the inhibition in vivo at 150 mg/kg [2] of the same molecule?
Answer: The inhibition in vivo at 150 mg/kg was 99%.

Question: What about the inhibition in vivo at 300 mg/kg [2] of the same molecule?
Answer: Its inhibition in vivo at 300 mg/kg is 100%.
